Source: patent US20250368648A1, “MULTI-CYCLIC IRAK AND FLT3 INHIBITING COMPOUNDS AND USES THEREOF” (CHILDREN'S HOSPITAL MEDICAL CENTER, priority 2022, published 2025)

Legend:
THP1 cells = assay: Combination drug screening, Cell Titer Glo, THP1 cells; conditions: THP1 cells; for Excess HSA Score: sum score, 10 × 10 dataset, 48 hours;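 for all read-outs here: luminescence read out in 1536-well plates seeded with 500 THP1 cells per well, each drug spanning a 10-point concentration range in the combination matrix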
MOLM14 (D835Y) cells = assay: Combination drug screening, Cell Titer Glo, MOLM14 (D835Y) cells; conditions: MOLM14(D835Y) cells; for Excess HSA Score: sum score, listed as compound in combination with Compound 106, 48 hours;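 for all read-outs here: MOLM14 cells with FLT3 ITD plus D835Y, 500 per well in 1536-well plates, 10-point dose ranges, luminescent viability after 48 h, negative Excess HSA indicates synergy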
Procedure: Briefly, 10 nL of the compound shown below was acoustically dispensed into 1536-well white polystyrene tissue culture-treated plates with an Echo 550 acoustic liquid handler (Labcyte). Cells were then added to compound-containing plate at a density of 500-cells/well in 5 μL of medium. A 6-point or 10-point custom concentration range was used for all listed drugs. Plates were incubated for 48 hours at standard incubator conditions covered by a stainless steel gasketed lid to prevent evaporation. 48h post compound addition, 3 μL of Cell Titer Glo (Promega) were added to each well and plates were incubated at room temperature for 15 minutes with the stainless-steel lid in place. Luminescence readings were taken using a Viewlux imager (PerkinElmer) with a 2 second exposure time per plate.
A smaller concentration indicates higher potency to synergize with Venetoclax.
A smaller concentration indicates higher potency to synergize with azacitidine.
This is a cell line that has the FLT3 ITD mutation but also the FLT3 D835Y kinase domain mutation. […] Excess HSA is a measure of synergy vs. additivity or antagonism, wherein a negative Excess HSA value is indicative of synergy.

[1] = listed as compound in combination with CG-806 (a FLT3/BTK inhibitor)
[2] = listed as compound in combination with Compound 45a
[3] = listed as compound in combination with Compound 46a
[4] = listed as compound in combination with Compound 47a
[5] = listed as compound in combination with Compound 48a
[6] = listed as compound in combination with Compound 102
[7] = listed as compound in combination with Compound 106
[8] = listed as compound in combination with Gilteritinib (a FLT3/AXL inhibitor)
[9] = listed as compound in combination with PF-06650833 (an IRAK4 selective inhibitor)
[10] = listed as compound in combination with Quizartinib (a FLT3/Kit/PDGFRa inhibitor)
[11] = listed as compound in combination with emavusertib (CA-4948) (a FLT3/IRAK4 inhibitor)
[12] = combination therapy of CG-806 (a FLT3/BTK inhibitor) and the named additional compound, 110 × 10 dataset
[13] = combination therapy of Compound 45a and the named additional compound, 110 × 10 dataset
[14] = combination therapy of Compound 46a and the named additional compound, 110 × 10 dataset
[15] = combination therapy of Compound 47a and the named additional compound, 110 × 10 dataset
[16] = combination therapy of Compound 48a and the named additional compound, 110 × 10 dataset
[17] = combination therapy of Compound 102 and the named additional compound, 10 × 10 dataset
[18] = combination therapy of Gilteritinib (a FLT3/AXL inhibitor) and the named additional compound, 110 × 10 dataset
[19] = combination therapy of PF-06650833 (an IRAK4 selective inhibitor) and the named additional compound, 110 × 10 dataset
[20] = combination therapy of Quizartinib (a FLT3/Kit/PDGFRa inhibitor) and the named additional compound, 110 × 10 dataset
[21] = combination therapy of emavusertib (CA-4948) (a FLT3/IRAK4 inhibitor) and the named additional compound, 110 × 10 dataset

Structure (SMILES): COc1cc(F)ccc1-c1cc(Nc2cc(CS(C)(=N)=O)ccn2)ncc1F (single isomer, unassigned; (+)) [(+)-BAY-1251152, BAY1251152]
- Comments (THP1 cells; combination with PF-06650833): Synergistic (a negative Excess HSA value is indicative of synergy)
- Excess HSA Score (THP1 cells; [1]): −199.4
- Excess HSA Score (THP1 cells; [2]): −860.7
- Excess HSA Score (THP1 cells; [3]): −263.4
- Excess HSA Score (THP1 cells; [4]): −21.17
- Excess HSA Score (THP1 cells; [5]): 97
- Excess HSA Score (THP1 cells; [6]): −265.1
- Excess HSA Score (THP1 cells; [7]): −427.1
- Excess HSA Score (THP1 cells; [8]): −656.6
- Excess HSA Score (THP1 cells; [9]): −758.9
- Excess HSA Score (THP1 cells; [10]): 454.7
- Excess HSA Score (THP1 cells; [11]): −51.35
- Sum Excess HSA Score (MOLM14 (D835Y) cells; [12]): 1704
- Sum Excess HSA Score (MOLM14 (D835Y) cells; [13]): −157.4
- Sum Excess HSA Score (MOLM14 (D835Y) cells; [14]): −133.4976
- Sum Excess HSA Score (MOLM14 (D835Y) cells; [15]): −727.7
- Sum Excess HSA Score (MOLM14 (D835Y) cells; [16]): −215.2
- Sum Excess HSA Score (MOLM14 (D835Y) cells; [17]): −20.6
- Sum Excess HSA Score (MOLM14 (D835Y) cells; [18]): 362.2497
- Sum Excess HSA Score (MOLM14 (D835Y) cells; [19]): −386
- Sum Excess HSA Score (MOLM14 (D835Y) cells; [20]): −511.9
- Sum Excess HSA Score (MOLM14 (D835Y) cells; [21]): 274
- Excess HSA Score (MOLM14 (D835Y) cells; 10 × 10 dataset): −865.6

Structure (SMILES): NC1(C(=O)N[C@@H](CCO)c2ccc(Cl)cc2)CCN(c2nc[nH]c3nccc2-3)CC1 [AZD-5363, capivasertib]
- Comments (THP1 cells; combination with Compound 48a): Synergistic (a negative Excess HSA value is indicative of synergy)
- Comments (THP1 cells; combination with emavusertib (CA-4948)): Synergistic (a negative Excess HSA value is indicative of synergy)
- Excess HSA Score (THP1 cells; [1]): −189.8
- Excess HSA Score (THP1 cells; [2]): −1027.6539
- Excess HSA Score (THP1 cells; [3]): −276.8
- Excess HSA Score (THP1 cells; [4]): 124.8
- Excess HSA Score (THP1 cells; [5]): −732.6
- Excess HSA Score (THP1 cells; [6]): −198.6
- Excess HSA Score (THP1 cells; [7]): −134.3
- Excess HSA Score (THP1 cells; [8]): 989.6
- Excess HSA Score (THP1 cells; [9]): −649.7
- Excess HSA Score (THP1 cells; [10]): 17.2569
- Excess HSA Score (THP1 cells; [11]): −1144.9723
- Comments (synergistic / antagonistic) (MOLM14 (D835Y) cells; [12]): Synergistic (a negative Excess HSA value is indicative of synergy)
- Sum Excess HSA Score (MOLM14 (D835Y) cells; [12]): −2332
- Sum Excess HSA Score (MOLM14 (D835Y) cells; [13]): −239.9
- Sum Excess HSA Score (MOLM14 (D835Y) cells; [14]): 637.8
- Sum Excess HSA Score (MOLM14 (D835Y) cells; [15]): −894
- Sum Excess HSA Score (MOLM14 (D835Y) cells; [16]): −939.6
- Sum Excess HSA Score (MOLM14 (D835Y) cells; [17]): −439.3
- Sum Excess HSA Score (MOLM14 (D835Y) cells; [18]): −966.8597
- Sum Excess HSA Score (MOLM14 (D835Y) cells; [19]): 47.56
- Sum Excess HSA Score (MOLM14 (D835Y) cells; [20]): −1637
- Sum Excess HSA Score (MOLM14 (D835Y) cells; [21]): −850.1
- Excess HSA Score (MOLM14 (D835Y) cells; 10 × 10 dataset): −105.2

Structure (SMILES): C[C@]12C=CC(=O)C=C1CC[C@@H]1[C@@H]2[C@@H](O)C[C@@]2(C)[C@H]1CC[C@]2(O)C(=O)CO [Prednisolone, prednisolone]
- Excess HSA Score (THP1 cells; [1]): 335.9
- Excess HSA Score (THP1 cells; [2]): 438.5
- Excess HSA Score (THP1 cells; [3]): 174.9
- Excess HSA Score (THP1 cells; [4]): 134.6
- Excess HSA Score (THP1 cells; [5]): 511.8
- Excess HSA Score (THP1 cells; [6]): 26.91
- Excess HSA Score (THP1 cells; [7]): 274.3
- Excess HSA Score (THP1 cells; [8]): −110.9078
- Excess HSA Score (THP1 cells; [9]): −254.8
- Excess HSA Score (THP1 cells; [10]): −81.1
- Excess HSA Score (THP1 cells; [11]): 70.05
- Sum Excess HSA Score (MOLM14 (D835Y) cells; [12]): −218
- Sum Excess HSA Score (MOLM14 (D835Y) cells; [13]): −106.5
- Sum Excess HSA Score (MOLM14 (D835Y) cells; [14]): −52.71
- Sum Excess HSA Score (MOLM14 (D835Y) cells; [15]): −58.8974
- Sum Excess HSA Score (MOLM14 (D835Y) cells; [16]): −339.3
- Sum Excess HSA Score (MOLM14 (D835Y) cells; [17]): −260.2
- Sum Excess HSA Score (MOLM14 (D835Y) cells; [18]): −583.8
- Sum Excess HSA Score (MOLM14 (D835Y) cells; [19]): −431.6
- Sum Excess HSA Score (MOLM14 (D835Y) cells; [20]): 213.4
- Sum Excess HSA Score (MOLM14 (D835Y) cells; [21]): −4.3456
- Excess HSA Score (MOLM14 (D835Y) cells; 10 × 10 dataset): −5.273

Structure (SMILES): CC(C)[C@@H](CS(=O)(=O)C(C)C)N1C(=O)[C@@](C)(CC(=O)O)C[C@H](c2cccc(Cl)c2)[C@H]1c1ccc(Cl)cc1 [AMG-232, navtemadlin]
- Excess HSA Score (THP1 cells; [1]): 917.1
- Excess HSA Score (THP1 cells; [2]): 441
- Excess HSA Score (THP1 cells; [3]): 229.7
- Excess HSA Score (THP1 cells; [4]): 364.2
- Excess HSA Score (THP1 cells; [5]): 420.6
- Excess HSA Score (THP1 cells; [6]): −171.2
- Excess HSA Score (THP1 cells; [7]): 394.3
- Excess HSA Score (THP1 cells; [8]): 24.49
- Excess HSA Score (THP1 cells; [9]): −179
- Excess HSA Score (THP1 cells; [10]): −91.44
- Excess HSA Score (THP1 cells; [11]): 125.5
- Sum Excess HSA Score (MOLM14 (D835Y) cells; [12]): −536.7
- Sum Excess HSA Score (MOLM14 (D835Y) cells; [13]): −165.5
- Sum Excess HSA Score (MOLM14 (D835Y) cells; [14]): −654.7
- Sum Excess HSA Score (MOLM14 (D835Y) cells; [15]): −325.2
- Sum Excess HSA Score (MOLM14 (D835Y) cells; [16]): 224.1
- Sum Excess HSA Score (MOLM14 (D835Y) cells; [17]): −197.3
- Sum Excess HSA Score (MOLM14 (D835Y) cells; [18]): −113
- Sum Excess HSA Score (MOLM14 (D835Y) cells; [19]): −1066
- Sum Excess HSA Score (MOLM14 (D835Y) cells; [20]): −1109
- Sum Excess HSA Score (MOLM14 (D835Y) cells; [21]): −373.7
- Excess HSA Score (MOLM14 (D835Y) cells; 10 × 10 dataset): −640.2

Structure (SMILES): CC(=O)c1c(C)c2cnc(Nc3ccc(N4CCNCC4)cn3)nc2n(C2CCCC2)c1=O [Palbociclib]
- Comments (THP1 cells; combination with Quizartinib): Synergistic (a negative Excess HSA value is indicative of synergy)
- Excess HSA Score (THP1 cells; [1]): −368.3
- Excess HSA Score (THP1 cells; [2]): −912.2
- Excess HSA Score (THP1 cells; [3]): −907.6
- Excess HSA Score (THP1 cells; [4]): −166.9
- Excess HSA Score (THP1 cells; [5]): −166.7
- Excess HSA Score (THP1 cells; [6]): −116.5
- Excess HSA Score (THP1 cells; [7]): −590.5
- Excess HSA Score (THP1 cells; [8]): −826.9
- Excess HSA Score (THP1 cells; [9]): −610
- Excess HSA Score (THP1 cells; [10]): −794.7
- Excess HSA Score (THP1 cells; [11]): 190.2
- Sum Excess HSA Score (MOLM14 (D835Y) cells; [12]): −246
- Sum Excess HSA Score (MOLM14 (D835Y) cells; [13]): −715.3
- Sum Excess HSA Score (MOLM14 (D835Y) cells; [14]): −844.8
- Sum Excess HSA Score (MOLM14 (D835Y) cells; [15]): −616.3
- Sum Excess HSA Score (MOLM14 (D835Y) cells; [16]): −583.3
- Sum Excess HSA Score (MOLM14 (D835Y) cells; [17]): −537.2
- Sum Excess HSA Score (MOLM14 (D835Y) cells; [18]): −576.9
- Sum Excess HSA Score (MOLM14 (D835Y) cells; [19]): 94.98
- Sum Excess HSA Score (MOLM14 (D835Y) cells; [20]): −1120
- Sum Excess HSA Score (MOLM14 (D835Y) cells; [21]): −557.8
- Excess HSA Score (MOLM14 (D835Y) cells; 10 × 10 dataset): −252.8

Structure (SMILES): COCC1(CO)C(=O)C2CCN1CC2 (centres unmarked) [Eprenetapopt/APR-246, APR-246 (Eprenetapopt)]
- Excess HSA Score (THP1 cells; [1]): 300.5
- Excess HSA Score (THP1 cells; [2]): −629.2
- Excess HSA Score (THP1 cells; [3]): 603.9
- Excess HSA Score (THP1 cells; [4]): −14.7
- Excess HSA Score (THP1 cells; [5]): −33.1
- Excess HSA Score (THP1 cells; [6]): 171.5
- Excess HSA Score (THP1 cells; [7]): 268
- Excess HSA Score (THP1 cells; [8]): 365.9
- Excess HSA Score (THP1 cells; [9]): −225.6
- Excess HSA Score (THP1 cells; [10]): 437.691
- Excess HSA Score (THP1 cells; [11]): 482.6
- Sum Excess HSA Score (MOLM14 (D835Y) cells; [12]): −271.7
- Sum Excess HSA Score (MOLM14 (D835Y) cells; [13]): 284.5
- Sum Excess HSA Score (MOLM14 (D835Y) cells; [14]): −183.2
- Sum Excess HSA Score (MOLM14 (D835Y) cells; [15]): 366.1
- Sum Excess HSA Score (MOLM14 (D835Y) cells; [16]): −140.8
- Sum Excess HSA Score (MOLM14 (D835Y) cells; [17]): −55.14
- Sum Excess HSA Score (MOLM14 (D835Y) cells; [18]): 647.6
- Sum Excess HSA Score (MOLM14 (D835Y) cells; [19]): −566
- Sum Excess HSA Score (MOLM14 (D835Y) cells; [20]): −652.9
- Sum Excess HSA Score (MOLM14 (D835Y) cells; [21]): 504.1
- Excess HSA Score (MOLM14 (D835Y) cells; 10 × 10 dataset): −43.15
